Measured values reported in US10442791B2, “DNA-PK inhibitors” (Vertex Pharmaceuticals Incorporated, priority 2012, dated 2019).

The compounds below were run against DNA-PK (Homo sapiens, UniProt P78527) (assay: DNA-PK inhibition assay (radiometric 33P-ATP kinase assay)). Conditions: 100 μM ATP; competitive tight-binding fit.
Format: biochemical
Protocol: Compounds were screened for their ability to inhibit DNA-PK kinase using a standard radiometric assay. Briefly, in this kinase assay the transfer of the terminal ^33P-phosphate in ^33P-ATP to a peptide substrate is interrogated. The assay was carried out in 384-well plates to a final volume of 50 μL per well containing approximately 6 nM DNA-PK, 50 mM HEPES (pH 7.5), 10 mM MgCl2, 25 mM NaCl, 0.01% BSA, 1 mM DTT, 10 μg/mL sheared double-stranded DNA (obtained from Sigma), 0.8 mg/mL DNA-PK peptide ([…] obtained from American Peptide), and 100 μM ATP. Accordingly, compounds of the invention were dissolved in DMSO to make 10 mM initial stock solutions. Serial dilutions in DMSO were then made to obtain the final solutions for the assay. A 0.75 μL aliquot of DMSO or inhibitor in DMSO was added to each well, followed by the addition of ATP substrate solution containing ^33P-ATP (obtained from Perkin Elmer). The reaction was started by the addition of DNA-PK, peptide and ds-DNA. After 45 min. the reaction was quenched with 25 μL of 5% phosphoric acid. The reaction mixture was transferred to MultiScreen HTS 384-well PH plates (obtained from Millipore), allowed to bind for one hour, and washed three times with 1% phosphoric acid. Following the addition of 50 μL of Ultima Gold™ high efficiency scintillant (obtained from Perkin Elmer), the samples were counted in a Packard TopCount NXT Microplate Scintillation and Luminescence Counter (Packard BioScience). The Ki values were calculated using Microsoft Excel Solver macros to fit the data to the kinetic model for competitive tight-binding inhibition.

Compound	Ki [nM]
CNC(=O)c1ccnc2c([C@H](C)CNc3cc(-c4ccc(NC5CCN(CC(F)(F)F)CC5)nc4)ncn3)cccc12 [Compound 1085]	< 30
CNC(=O)c1ccnc2c([C@H](C)CNc3cc(-c4ccc(NC5CCN(C(C)=O)CC5)nc4)ncn3)cccc12 [Compound 1064]	< 30
CNC(=O)c1ccnc2c([C@H](C)CNc3cc(-c4cnc(COC)nc4)ncn3)ccc(F)c12 [Compound 1000]	< 30
CNC(=O)c1ccnc2c([C@H](C)CNc3cc(-c4ccc(CC5CCN(C(C)=O)CC5)nc4)ncn3)cccc12 [Compound 1007]	< 30
COc1ccc(CCNc2cc(-c3ccc4ncccc4c3)ncn2)c(OC)c1 [Compound 28]	< 30
CNC(=O)c1ncnc2c([C@H](C)CNc3cc(-c4cnc(OC)nc4)ncn3)cccc12 [Compound 1009]	< 30
CNC(=O)c1ncnc2c([C@H](C)CNc3cc(-c4ccc(OC)nc4)ncn3)cccc12 [Compound 1005]	< 30
CNC(=O)c1c(F)cnc2c([C@H](C)CNc3cc(-c4cnc(CC5CCN(CC(F)F)CC5)nc4)ncn3)cccc12 [Compound 1046]	< 30
CNC(=O)c1ccnc2c([C@H](C)CNc3cc(-c4cnc(N(C)C5CCN(C)CC5)nc4)ncn3)cccc12 [Compound 1057]	< 30
CNC(=O)c1ccnc2c([C@H](C)CNc3cc(-c4cnc(NCC(F)(F)F)nc4)ncn3)cccc12 [Compound 1066]	< 30
CCOc1ncc(-c2cc(NC[C@@H](C)c3cccc4c(C(=O)NC)ncnc34)ncn2)cn1 [Compound 1011]	< 30
CNC(=O)c1ccnc2c([C@H](C)CNc3cc(-c4cnc(OC5CCN(C(=O)OC(C)(C)C)C5)nc4)ncn3)cccc12 (stereo partly shown) [Compound 746]	< 30
CNC(=O)c1c(F)cnc2c([C@H](C)CNc3cc(-c4cnc(OC)nc4)ncn3)cccc12 [Compound 1035]	< 30
CNC(=O)c1c(F)cnc2c([C@H](C)CNc3cc(-c4cnc(C(C)C)nc4)ncn3)cccc12 [Compound 859]	< 30
CNC(=O)c1ccnc2c([C@H](C)CNc3cc(-c4cc(C)nc(C)c4)ncn3)cccc12 [Compound 820]	< 30
CNC(=O)c1ccnc2c([C@H](C)CNc3cc(-c4cnc(CC5CCN(CC(F)F)CC5)nc4)ncn3)cccc12 [Compound 1045]	< 30

Compound	Ki [nM]
CNC(=O)c1ccnc2c([C@H](C)CNc3cc(-c4cnc(N(C)C5CCN(C(C)=O)CC5)nc4)ncn3)cccc12 [Compound 1081]	< 30
CNC(=O)c1ccnc2c([C@H](C)CNc3cc(-c4ccc(CC5CCN(CC(F)(F)F)CC5)nc4)ncn3)ccc(F)c12 [Compound 1022]	< 30
CNC(=O)c1ccnc2c([C@H](C)CNc3cc(-c4cnc(OC)nc4)ncn3)ccc(F)c12 [Compound 1031]	< 30
CNC(=O)c1c(F)cnc2c([C@H](C)CNc3cc(-c4cnc(N(C)C5CCN(C)CC5)nc4)ncn3)cccc12 [Compound 1058]	< 30
CNC(=O)c1c(F)cnc2c([C@H](C)CNc3cc(-c4cnc(NC5CCN(CC(F)(F)F)CC5)nc4)ncn3)cccc12 [Compound 1036]	< 30
CNC(=O)c1c(F)cnc2c([C@H](C)CNc3cc(-c4cnc(NCC(=O)N(C)C)nc4)ncn3)cccc12 [Compound 1076]	< 30
CNC(=O)c1c(F)cnc2c([C@H](C)CNc3cc(-c4ccc(C5(O)COC5)nc4)ncn3)cccc12 [Compound 1068]	< 30
CNC(=O)c1ccnc2c([C@H](C)CNc3cc(-c4cnc(NC5CCN(CC(F)(F)F)CC5)nc4)ncn3)cccc12 [Compound 1080]	< 30
[2H]c1nc(C)nc([2H])c1-c1cc(NC[C@@H](C)c2cccc3c(C(N)=O)ccnc23)ncn1 [Compound 1027]	< 30
CNC(=O)c1ccnc2c([C@H](C)CNc3cc(-c4ccc(CC5CCN(CC(F)F)CC5)nc4)ncn3)cccc12 [Compound 1019]	< 30
CNC(=O)c1c(F)cnc2c([C@H](C)CNc3cc(-c4cnc(N(C)C5CCN(CC(F)F)CC5)nc4)ncn3)cccc12 [Compound 1062]	< 30
CNC(=O)c1c(F)cnc2c([C@H](C)CNc3cc(-c4cnc(NC5CCN(C)CC5)nc4)ncn3)cccc12 [Compound 1079]	< 30
CNC(=O)c1ccnc2c([C@H](C)CNc3cc(-c4cnc(OC(C)(C)C)nc4)ncn3)ccc(F)c12 [Compound 998]	< 30
CNC(=O)CNc1ncc(-c2cc(NC[C@@H](C)c3cccc4c(C(=O)NC)ccnc34)ncn2)cn1 [Compound 1074]	< 30
CNC(=O)c1ccnc2c([C@H](C)CNc3cc(-c4cnc(NCCNC(C)=O)nc4)ncn3)ccc(F)c12 [Compound 1053]	< 30
